Results taken from publication PMC9452538, “The antimicrobial peptide LI14 combats multidrug-resistant bacterial infections” (Communications Biology, 2022).
≈ marks a conversion by molar mass, not a printed value. Peptide text beside a SMILES is read from it.

Assays:
[1] = system: E. coli ATCC 25922; experiment: microbe, parasite or virus in culture; format: cell-based, Escherichia coli; conditions: ATCC 25922
Method in brief: (§1)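 Bacteria are grown to exponential phase, diluted 1:1000 in MHB, then combined at 1.5 × 10^6 CFUs/mL with different peptide concentrations. MICs follow standard CLSI2021 broth micro-dilution.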

[2] = system: E. coli B2 (blaNDM-5 + mcr-1); experiment: microbe, parasite or virus in culture; format: cell-based, Escherichia coli; conditions: B2 (blaNDM-5 + mcr-1)
Method in brief: as §1

[3] = system: K. pneumoniae ATCC 700603; experiment: microbe, parasite or virus in culture; format: cell-based, Klebsiella pneumoniae; conditions: ATCC 700603
Method in brief: as §1

[4] = system: K. pneumoniae D120 (mcr-8); experiment: microbe, parasite or virus in culture; format: cell-based, Klebsiella pneumoniae; conditions: D120 (mcr-8)
Method in brief: as §1

[5] = system: S. aureus ATCC 29213; experiment: Resistance development study, serial passages; format: cell-based, Staphylococcus aureus; conditions: 80 serial passages at sub-inhibitory concentration (0.5-fold MIC)
Description: The ability of LI14 peptide to induce resistance was studied as previously described. Resistance to the therapeutically important drugs rifampicin and ciprofloxacin was measured using S. aureus ATCC 29213 and E. coli ATCC 25922 as test strains. The middle and final MICs were monitored after eighty such serial passages exposed to the tested medicines (0.5-fold MIC), and the fold change in MIC increase was recorded.

[6] = system: MRSA T144 and E. coli B2 established biofilms; experiment: Treatment of established biofilms; format: cell-based; conditions: 128 μg/mL LI14, 2 h
Description: In MHB medium, a mid-logarithmic growth-phase culture was diluted to 10^6 CFUs/ml. A 96-well flat bottom plate was filled with 100 μL of this bacterial suspension per well, which was cultured at 37 °C for 36 h to create mature biofilms. […] Plates were sonicated for 10 min after incubation to remove adhering bacteria, and the number of live bacteria was counted microbiologically.

[7] = system: MRSA T144; experiment: Galleria mellonella infection model; format: in vivo; conditions: MRSA T144 infected G. mellonella; 50 mg/kg of LI14 at 1 h after infection; 7 days; n = 8
Description: Galleria mellonella larvae (supplied by Huiyude Biotech Company, Tianjin, China) were separated into six groups (n = 8 biologically independent animals per group) and infection models by injecting MRSA T144 and E. coli B2 cultures, respectively (10 µL, 1.0 × 10^5 CFUs per larvae) into the right posterior gastropoda[42],[48]. The infected larvae were treated by giving LI14 peptide (10, 20, 50 mg/kg), ampicillin/rifampicin (10 mg/kg) or a mixture of LI14 with ampicillin/rifampicin (10 + 10 mg/kg) in the left posterior gastropoda after 1 h infection, with the PBS injection group serving as a control treatment. Within 7 days, survival rates of Galleria mellonella larvae were inspected and recorded.

[8] = system: E. coli B2; experiment: Neutropenic mouse thigh infection model; format: in vivo, CD-1 mice; conditions: 48 h; for Reduction in CFUs in thigh compared with vehicles: n = 6
Description: (§2) Female CD-1 mice (n = 6 biologically independent animals per group) were first given cyclophosphamide (two consecutive injections of 150 and 100 mg kg^−1 at 4 and 1 day before infection) to construct neutropenia models. The mice’s right thighs were then injected with 100 μL MRSA T144 or E. coli B2 suspensions (10^5 CFUs per mouse). Post-infection of 1 h, 100 μL LI14 peptide (10 or 20 mg/kg), ampicillin/rifampicin (20 mg/kg) or a combination of LI14 with ampicillin/ rifampicin (10 + 20 mg/kg) were given by intraperitoneal injection. All mice were euthanized 48 h after drug administration, and right thigh muscle tissue was removed aseptically, homogenized, serially diluted, and plated on MHA to qualify bacterial loads after overnight incubation at 37 °C.

[9] = system: MRSA T144; experiment: Neutropenic mouse thigh infection model; format: in vivo, CD-1 mice; conditions: 48 h; for Reduction in CFUs in thigh compared with vehicles: n = 6
Description: as §2

SMILES: CC[C@H](C)[C@H](NC(=O)[C@H](CCCNC(=N)N)NC(=O)[C@H](CS)NC(=O)[C@H](CC(C)C)NC(=O)[C@H](CCCCN)NC(=O)[C@H](CCCCN)NC(=O)[C@H](CC(C)C)NC(=O)[C@@H](NC(=O)[C@H](CCCNC(=N)N)NC(=O)[C@H](CS)NC(=O)[C@H](CC(C)C)NC(=O)[C@H](CCCCN)NC(=O)[C@H](CCCCN)NC(=O)[C@@H](N)CC(C)C)[C@@H](C)CC)C(N)=O [LI14] (H-LKKLCRILKKLCRI-NH2)
- MIC [1]: 8 µg/mL (≈ 4.63 µM)
- MIC [2]: 4 µg/mL
- MIC [3]: 32 µg/mL (≈ 18.5 µM)
- MIC [4]: 32 µg/mL (≈ 18.5 µM)
- Increase in MIC after serial passages [5]: 8 fold
- Eradication of established biofilms [6]: almost eradicated all established biofilms
- Survival rate of larvae [7]: 100%
- Bacterial load in thigh ([8]; LI14 10 mg/kg i.p., animal 1): 5.99 Log10CFUs/thigh
- Bacterial load in thigh ([8]; LI14 10 mg/kg i.p., animal 2): 5.91 Log10CFUs/thigh
- Bacterial load in thigh ([8]; LI14 10 mg/kg i.p., animal 3): 6.58 Log10CFUs/thigh
- Bacterial load in thigh ([8]; LI14 10 mg/kg i.p., animal 4): 6.66 Log10CFUs/thigh
- Bacterial load in thigh ([8]; LI14 10 mg/kg i.p., animal 5): 7.36 Log10CFUs/thigh
- Bacterial load in thigh ([8]; LI14 10 mg/kg i.p., animal 6): 7.31 Log10CFUs/thigh
- Reduction in CFUs in thigh compared with vehicles ([8]; LI14 10 mg/kg i.p.): ~ 2 log10
- Bacterial load in thigh ([8]; LI14 20 mg/kg i.p., animal 1): 4.93 Log10CFUs/thigh
- Bacterial load in thigh ([8]; LI14 20 mg/kg i.p., animal 2): 4.99 Log10CFUs/thigh
- Bacterial load in thigh ([8]; LI14 20 mg/kg i.p., animal 3): 4.71 Log10CFUs/thigh
- Bacterial load in thigh ([8]; LI14 20 mg/kg i.p., animal 4): 4.79 Log10CFUs/thigh
- Bacterial load in thigh ([8]; LI14 20 mg/kg i.p., animal 5): 5.69 Log10CFUs/thigh
- Bacterial load in thigh ([8]; LI14 20 mg/kg i.p., animal 6): 5.66 Log10CFUs/thigh
- Reduction in CFUs in thigh compared with vehicles ([8]; LI14 20 mg/kg i.p.): 4 log10
- Bacterial load in thigh ([9]; LI14 10 mg/kg i.p., animal 1): 6.18 Log10CFUs/thigh
- Bacterial load in thigh ([9]; LI14 10 mg/kg i.p., animal 2): 6.30 Log10CFUs/thigh
- Bacterial load in thigh ([9]; LI14 10 mg/kg i.p., animal 3): 5.92 Log10CFUs/thigh
- Bacterial load in thigh ([9]; LI14 10 mg/kg i.p., animal 4): 5.83 Log10CFUs/thigh
- Bacterial load in thigh ([9]; LI14 10 mg/kg i.p., animal 5): 7.15 Log10CFUs/thigh
- Bacterial load in thigh ([9]; LI14 10 mg/kg i.p., animal 6): 7.28 Log10CFUs/thigh
- Reduction in CFUs in thigh compared with vehicles ([9]; LI14 10 mg/kg i.p.): ~ 2 log10
- Bacterial load in thigh ([9]; LI14 20 mg/kg i.p., animal 1): 4.32 Log10CFUs/thigh
- Bacterial load in thigh ([9]; LI14 20 mg/kg i.p., animal 2): 4.36 Log10CFUs/thigh
- Bacterial load in thigh ([9]; LI14 20 mg/kg i.p., animal 3): 4.77 Log10CFUs/thigh
- Bacterial load in thigh ([9]; LI14 20 mg/kg i.p., animal 4): 4.61 Log10CFUs/thigh
- Bacterial load in thigh ([9]; LI14 20 mg/kg i.p., animal 5): 5.45 Log10CFUs/thigh
- Bacterial load in thigh ([9]; LI14 20 mg/kg i.p., animal 6): 5.51 Log10CFUs/thigh
- Reduction in CFUs in thigh compared with vehicles ([9]; LI14 20 mg/kg i.p.): 4 log10
